These results are taken from patent publication US20090233910A1, “Npy antagonists, preparation and uses” (CEREP, priority 2005, published 2009).

Marks after values point to notes of the source that are not given here.

One experiment relates to fasting mice. The experiment is described as follows: Food intake by fasting mice. It is filed as in vivo. The conditions noted are these: fasting male OF1 mice, 30 mg/kg ip. As for the experimental part: The day before the experiment at 16 h, male OF1 mice (Charles River, France) with body weight varying between 20 and 25 g, are left to fast in individual cages with unlimited drink water. On the day of the experiment, at 9 h30±15 min, a control batch of 10 mice was given the solvent (5% DMSO, Merck, 1.02931.1000, 5% cremophor EL, Sigma C-5135, physiological saline solution to complete to volume) via intra peritoneal route or per os in a volume of 10 ml/kg, and the other batches of 10 mice were given the products to be tested dissolved in the solvent (10 or 30 mg/kg in a volume of 10 ml/kg ip ou po). Individual feed troughs filled with food (A04, UAR, France) were weighed then placed in the cages, exactly 30 min or 60.min after treating the mice ip or per os, respectively. The feed troughs were then weighed 1 h, 2 h, 3 h, 4 h and when applicable 6 h and 24 h after placing the feed troughs in the cages. Food consumptions are expressed in grams, as a mean±standard error (S.E.M). (n=10). Statistical analysis used ANOVA followed by Dunnett's multiple comparison test. The level of significance is obtained for p<0.05.

Experiment [1] addresses T1, NPY Y1 receptor (Homo sapiens, UniProt P25929).
T1 construct: host or cells: SK-N-MC cells (whole-cell suspension)
T1 sequence (P25929 1-384): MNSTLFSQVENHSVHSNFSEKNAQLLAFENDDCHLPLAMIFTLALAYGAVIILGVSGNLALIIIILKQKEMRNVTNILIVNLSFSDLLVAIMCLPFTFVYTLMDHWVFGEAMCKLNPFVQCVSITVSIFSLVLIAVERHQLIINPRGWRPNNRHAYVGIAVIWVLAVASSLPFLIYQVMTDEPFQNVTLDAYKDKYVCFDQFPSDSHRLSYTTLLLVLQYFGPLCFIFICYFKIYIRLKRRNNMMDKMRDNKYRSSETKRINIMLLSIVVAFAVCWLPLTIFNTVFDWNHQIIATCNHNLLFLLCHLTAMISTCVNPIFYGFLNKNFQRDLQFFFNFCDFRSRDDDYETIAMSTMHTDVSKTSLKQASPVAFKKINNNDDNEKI
The experiment in a line: cAMP measurement test in SK-N-MC cells (shift of NPY dose-effect curves, forskoline-stimulated). Type of experiment: cell-based. The conditions noted are these: Schild analysis vs NPY, read-out: pA2 Y1 (converted). As for the experimental part: The SK-N-MC cells are cultured in 96-well plates. After aspirating the culture medium, the cells are washed with a phosphate buffer pH 7.4 (Invitrogen ref. 14190-094), then lifted with a Versene solution (Invitrogen, ref 15040-033). The cells are centrifuged at 500×g for 10 minutes at 4° C. They are resuspended in a stimulation buffer containing isobutyl-methyl-xanthine in sufficient concentration to inhibit the phosphodiesterases (Flashplate kit, Perkin Elmer). The tested compounds are added 10 minutes before depositing the NPY (Bachem, H3322) in variable concentration, then the 300 nM forskoline (Sigma, F6886). The cells are in cubated 1 hour at ambient temperature to allow cAMP production whose levels are measured using the Flashplate method after 2 hours incubation with the cAMP tracer [^125I]. The results are expressed in pA2 form observing the displacement of NPY dose-effect curves in the absence and presence of increasing concentrations of test compound [Schild, 1949, pAx and competitive drug antagonism, Br. J. Pharmacol., 4, 277-280].

In experiment [2] the target is T1, NPY Y1 receptor. The experiment in a line: Binding test to the NPY Y1 receptor ([125I]-PYY, SK-N-MC cell suspension). The conditions noted are these: SK-N-MC cells, 25 pM [125I]-PYY. As to the method:
The SK-N-MC cells (ATCC HBT10) are cultured at 37° C. in MEM medium (minimum essential medium) free of phenol red (Invitrogen ref. 04194565M) containing 10% foetal calf serum (Invitrogen ref. 10270-106), 1% non-essential aminoacids (Invitrogen ref. 11140-035), 1% sodium pyruvate (Invitrogen ref. 11360-039), 1% glutamine (Invitrogen ref. 25030-032), 100 IU/ml of penicillin and 100 μg/ml of streptomycin (Invitrogen ref. 15140-122) in a humid atmosphere containing 5% CO2.
After aspirating the culture medium, the cells are washed with a phosphate buffer pH 7.4 (Invitrogen ref. 14190-094), then lifted with a Versene solution (Invitrogen, ref 15040-033). The cells are centrifuged at 500×g for 10 minutes at 4° C. then resuspended in a freeze buffer pH 7.4 containing 50 mM HEPES (N-2-hydroxyethylpiperazine-N′-2-ethanesulfonic acid), 145 mM sodium chloride, 2.6 mM calcium chloride, 1 mM magnesium chloride, 10 mM glucose, and 1 mg/ml bovine albumin. The cell suspension is aliquoted into twenty million cells per milliliter of buffer and stored at −70° C.
The cell suspension is incubated 2 hours at 37° C. in an incubation buffer pH 7.4 containing 50 mM HEPES, 2.5 mM calcium chloride, 1 mM magnesium chloride, 0.025% sodium azide, 1 mg/ml bovine albumin and 25 pM [^125I]-PYY (Perkin Elmer, NEX341). The reaction is halted by filtering through a GF/B filter pre-treated with 0.3% PEI, and washed three times with 1 ml of 50 mM TRIS buffer [tris(hydroxymethyl)aminomethane]/HCl, pH 7.4. The radioactivity deposited on the filter is measured by liquid scintillation count (TopCount, Packard). Non-specific binding is determined in the presence of 1 μM NPY (Bachem, H3322). Results are expressed as IC50 values in nM calculated by non-linear regression with 4 parameters.

As for `CCCCN1CCC(Oc2ccc(C(=O)Nc3ccc(Oc4cc(F)c(NC(=O)NC(CC)CC)cc4OC)cc3)cc2C)CC1` [Example 312, 4-(1-Butyl-piperidin-4-yloxy)-N-(4-{4-[3-(1-ethyl-propyl)-ureido]-5-fluoro-2-methoxy-phenoxy}-phenyl)-3-methyl-benzamide], the “Accumulated inhibition of food intake after ip administering of 30 mg/kg, 0-1 h” value with fasting mice (0-1 h) was found to be 42%*. For the same molecule, the “Accumulated inhibition of food intake after ip administering of 30 mg/kg, 0-2 h” value in the experiment with fasting mice (0-2 h) was determined as 21%. In addition, in the experiment on fasting mice (0-3 h), the “Accumulated inhibition of food intake after ip administering of 30 mg/kg, 0-3 h” value turned out to be 33%**. The “Accumulated inhibition of food intake after ip administering of 30 mg/kg, 0-4 h” value in the experiment on fasting mice (0-4 h) came out at 27%*.

In the case of `CCC(CC)NC(=O)Nc1ccc(Oc2cnc(NC(=O)c3ccc(OC4CCN(C(C)C)CC4)cc3)s2)c(OC)c1` [Example 2, N-(5-{4-[3-(1-Ethyl-propyl)-ureido]-2-methoxy-phenoxy}-thiazol-2-yl)-4-(1-isopropyl-piperidin-4-yloxy)-benzamide], at NPY Y1 receptor [1], the Kb was 10 nM. The IC50 (commonly the concentration at which inhibition is half-maximal) at NPY Y1 receptor [2] turned out to be 15 nM.

For `CCOc1cc(NC(=O)NC(CC)CC)ccc1Oc1ccc(NC(=O)c2ccc(O[C@H]3C[C@H]4CC[C@@H](C3)N4C)cc2)cc1` [Example 40, N-(4-{2-Ethoxy-4-[3-(1-ethyl-propyl)-ureido]-phenoxy}-phenyl)-4-(8-methyl-8-aza-bicyclo[3.2.1]oct-(3-endo)-yloxy)-benzamide], the Kb at NPY Y1 receptor [1] was 2.24 nM. In addition, at NPY Y1 receptor [2], the IC50 was 1.7 nM.
